Data from patent US12168008B2, “Oxabicycloheptanes for modulation of immune response” (LIXTE BIOTECHNOLOGY, INC., priority 2016, dated 2024).

How the values were obtained:
[1] = tested on: Primary human T cells and Jurkat T cells; assay: In vitro studies PP2A and CTLA4 (Example 2); type: cell-based
Protocol: Primary human T cells and Jurkat T cells are treated with LB-100 and T-cell activation levels measured. LB-100 increases activation of the T cells.
Primary human T cells and Jurkat T cells are treated with LB-100 and PP2A:CTLA-4 interaction is assessed. LB-100 decreases the interaction of PP2A and CTLA-4.
Primary human T cells and Jurkat T cells are treated with LB-100 and levels of PP2A phosphorylation are measured. LB-100 increases phosphorylation in the T cells.

CT26 tumor = assay: CT26 syngeneic tumor model: tumor growth and survival; type: in vivo, mouse
Protocol: To test the hypothesis that inhibition of PP2A with LB-100 can enhance immune-mediated antitumor responses, rice were implanted with CT26 tumor cells. CT26 is a murine colon adenocarcinoma expressing low level of PD-L1 and is resistant to anti-PD1 therapy. After about 13 days, mice with tumor size between 30-100 mm^3 were randomized into four treatment groups (PBS control, LB-100 only—0.16 mg/kg, anti-PD-1 only—10 mg/kg, or a combination of both). Treatment was given every 2 days for a total of 28 days. Tumor size was assessed every two days (FIGS. 20A-C). Single agent treatment with anti-PD1 was ineffective in reducing tumor burden or increasing survival. LB-100 alone was able to increase median survival from 21 to 33 days (p=0.02). […]
Tumor Inoculation and Animal Studies—CT26 tumor cells (0.5×10^6) were injected subcutaneously in the right side of the abdomen. […] Tumor size were monitored with a digital caliper every 2-3 d and expressed as volume (length×width^2×0.5). […]
LB-100 and aPD-1 combination treatment synergistically elicit rejection of CT26 tumors: To test the hypothesis that PP2A inhibition synergizes with aPD-1 therapy in vivo in aPD-1 refractory tumors, a CT26 tumor was used, which is a murine colorectal carcinoma with high PD-L1 expression but limited response to aPD-1 therapy. […] Tumor growth was assessed every 2 days (FIG. 24A). […]

mouse B16 melanoma = assay: B16 melanoma tumor-bearing mice (FIG. 12, 17-19); type: in vivo
Protocol: FIG. 12. […] Treatment was started on the same day of tumor implantation. Control—PBS, Low dose—0.16 mg/kg, Medium dose—0.32 mg/kg.
FIG. 17A. CD8+CD44+ effector T cells are increased with PP2A inhibitor LB-100 treatment. Percentage of CD8+CD44+T effector cells population in tumor draining lymph node from B16 tumor bearing mice treated with LB-100 or PBS. 5 mice per group.

CD4/8 effector cells = assay: T cell subsets in naive mice (FIG. 13-14); type: in vivo, mouse
Protocol: FIG. 13A. […] Low dose of LB treatment in vivo induced more CD8 (left) and CD4 (right) effector T cells in lymph node. 5 mice per group. Control—PBS, Low dose—0.16 mg/kg, Medium dose—0.32 mg/kg.

CD8+ or CD4+ T cells = assay: Human allogeneic mixed lymphocyte reaction, T cells with monocyte-derived dendritic cells (Example 8); type: cell-based
Protocol: The effect of LB-100 on T-cells was assessed in human allogeneic mixed lymphocyte reactions, in which CD8+ or CD4+ T cells were co-cultured with […] monocyte-derived dendritic cells. […] The effect of LB-100 plus anti-PD-1 antibody was investigated on CD4+ T cells in the same assay.

## CN1CCN(C(=O)C2C(C(=O)O)[C@H]3CC[C@@H]2O3)CC1 (some centres unmarked) [LB-100]
[1]
  PP2A:CTLA-4 interaction: decreases
  T-cell activation levels: increases
  levels of PP2A phosphorylation in the T cells: increases
CT26 tumor; control 21 days, treatment every 2 days
  median survival: 33 days
CT26 tumor; mouse, in vivo
  tumor growth, single agent: did not significantly decrease tumor growth
Mouse B16 melanoma; every two days for 8 doses from day of implantation, 0.16 and 0.32 mg/kg
  B16 melanoma tumor growth: reduced mouse B16 melanoma tumor growth significantly
Mouse B16 melanoma; vs PBS, 5 mice per group
  CD8+CD44+ effector T cells in tumor draining lymph node: increased
  CD44+CD62L− CD4 effector T cells in lymph node: Increased
  CD44+CD62L− CD8 effector T cells in lymph node: Increased
CD4/8 effector cells; low dose
  PD-1 expressing CD8+ T cells in blood: reduced PD-1 expressing CD8+ T cells in blood
CD4/8 effector cells; low dose 0.16 mg/kg
  CD4/8 effector cells in lymph node of naïve mice: increased CD4/8 effector cells
CD4/8 effector cells; medium dose
  PD-1 expressing CD8+ T cells in spleen: reduced PD-1 expressing CD8+ T cells in spleen
CD8+ or CD4+ T cells
  IFNγ secretion in CD4+ T cells: increase
  T cell proliferation in CD8+ and CD4+ cells: dose dependent increase
  Tbet in CD4+ T cells: dose dependent increase
  co-stimulatory molecule OX40 expression on T cells: dose dependent increase
CD8+ or CD4+ T cells; co-cultured with monocytes derived DC
  PD-1 expression on human CD4 T cells: reduced PD-1 expression
